≈ marks a conversion by molar mass, not a printed value.
What was measured:
C. elegans = conditions: in vivo, 50 µM
M. tuberculosis [1] = type: cell-based
[2] = test system: S. aureus clinical isolate that forms biofilms; type: cell-based
S. aureus = type: cell-based
B. abortus = type: cell-based
M. tuberculosis [3] = conditions: after 10 days; cited from earlier work
S. enteritidis = type: cell-based
S. flexneri = type: cell-based
E. coli = type: cell-based

SMILES | viability of C. elegans (C. elegans) | MIC (M. tuberculosis [1]) [µM] | MIC [2] [µM] | MIC (S. aureus) [µM] | MIC (M. smegmatis) [µM] | MIC (B. abortus) [µM] | reduction in M. tuberculosis levels within THP-1 macrophages (M. tuberculosis [3]) | MIC (S. enteritidis) [µM] | MIC (S. flexneri) [µM] | MIC (E. coli) [µM]
NC[C@H]1O[C@H](O[C@H]2[C@H](O)[C@@H](O[C@H]3O[C@H](CO)[C@@H](O)[C@H](N)[C@H]3O)[C@H](N)C[C@@H]2N)[C@H](O)[C@@H](O)[C@@H]1O [kanamycin] | > 90% | 2 (≈ 0.969 µg/mL) | 4 (≈ 1.94 µg/mL) | 2 (≈ 0.969 µg/mL) | 8 (≈ 3.88 µg/mL) | 4 (≈ 1.94 µg/mL) | about 50% | 16 (≈ 7.75 µg/mL) | 2 (≈ 0.969 µg/mL) | 2 (≈ 0.969 µg/mL)
CC[C@H](C)[C@H](NC(=O)CN)C(=O)NCC(=O)N[C@@H](C)C(=O)N[C@H](C(=O)N[C@@H](CC(C)C)C(=O)N[C@@H](CCCCN)C(=O)N[C@H](C(=O)N[C@@H](CC(C)C)C(=O)N[C@H](C(=O)N[C@H](C(=O)NCC(=O)N[C@@H](CC(C)C)C(=O)N1CCC[C@H]1C(=O)N[C@@H](C)C(=O)N[C@@H](CC(C)C)C(=O)N[C@H](C(=O)N[C@@H](CO)C(=O)N[C@@H](Cc1c[nH]c2ccccc12)C(=O)N[C@H](C(=O)N[C@@H](CCCCN)C(=O)N[C@@H](CCCNC(=N)N)C(=O)N[C@@H](CCCCN)C(=O)N[C@@H](CCCNC(=N)N)C(=O)N[C@@H](CCC(N)=O)C(=O)N[C@@H](CCC(N)=O)C(N)=O)[C@@H](C)CC)[C@@H](C)CC)[C@@H](C)O)[C@@H](C)O)C(C)C)C(C)C [melittin] | no live worms | – | – | – | – | – | – | – | – | –

Source: PMC5482217 (Journal of the American Chemical Society, 2016)
